Earlier results in publication PMC11040670, “Mechanistic and Kinetic Insights into Cellular Uptake of Biomimetic Dinitrosyl Iron Complexes and Intracellular Delivery of NO for Activation of Cytoprotective HO-1” (JACS Au, 2024).

Columns and labels:
[1] = design: method as in doi:10.1021/j100627a005; details: cited from earlier work
Prx 1 = test system: Prx 1; design: method as in earlier work; details: generated [(NO)2Fe(SGS)(SCys-Prx1)]n–, phosphate buffer (pH 7.4), normoxia; ref SI 4; cited from earlier work

Compound	pKa for the carboxylic acid group [1]	k, second-order rate constant (Prx 1)
O=C(O)CCS [HSCH2CH2COOH]	4.3	–
[(NO)2Fe(SGS)2]n– and [(NO)2Fe(-SGS)2Fe(NO)2]m– [DNDGIC]	–	7.0 ± 0.4 M⁻¹ s⁻¹
